Consider five molecules from BindingDB's records for doi:10.1016/j.bmcl.2004.04.026 (Morphochem, 2004).

Bounds are passed on as bounds.

Test [1] concerns the target T1, Human immunodeficiency virus type 1 protease (Human immunodeficiency virus 1, UniProt Q72874). The test is described as follows: Inhibitory concentration against Protease.
The target of test [2] is T1, Human immunodeficiency virus type 1 protease. The test is described as follows: Evaluated for inhibition of Protease after CLND/MS correction from the crude mixture.
Test [3] has the same target. In words: Evaluated for inhibition of Protease after resynthesis and purification.

As for `COc1cc(CC2C(=O)OC(C)(C(=O)NC3CC3)C2=O)cc(OC)c1OC` (configuration not stated) [3-Hydroxy-2-methyl-5-oxo-4-(3,4,5-trimethoxy-benzyl)-2,5-dihydro-furan-2-carboxylic acid cyclopropylamide], the IC50 (usually the concentration at which inhibition is half-maximal) in test [1] was above 1000 µM.

In test [1], `CNC1C(=O)OC(CCc2ccccc2)(C(=O)NCC2CCCO2)C1=O` (configuration not stated) [3-Hydroxy-4-methylamino-5-oxo-2-phenethyl-2,5-dihydro-furan-2-carboxylic acid (tetrahydro-furan-2-ylmethyl)-amide] had an IC50 above 1000 µM.

For the molecule `COc1cc(CC2C(=O)OC(C)(C(=O)NC(C)(C)C)C2=O)cc(OC)c1OC` (configuration not stated) [3-Hydroxy-2-methyl-5-oxo-4-(3,4,5-trimethoxy-benzyl)-2,5-dihydro-furan-2-carboxylic acid tert-butylamide], the IC50 in test [1] is above 1000 µM.

Turning to `C[C@@H](c1ccccc1)C1C(=O)O[C@](CCc2ccccc2)(C(=O)NCc2ccc(C(C)(C)C)cc2)C1=O` (some centres not stated), the results for the IC50 in test [1], in test [2] and in test [3] were 84 µM, 1.2 µM and 4.6 µM, respectively.

`COc1cc(CC2C(=O)OC(CCc3ccccc3)(C(=O)NCC(C)(C)C)C2=O)cc(OC)c1OC` (configuration not stated) [3-Hydroxy-5-oxo-2-phenethyl-4-(3,4,5-trimethoxy-benzyl)-2,5-dihydro-furan-2-carboxylic acid (2,2-dimethyl-propyl)-amide] gave an IC50 in test [1] above 1000 µM.
